Among the test systems are HCT-15 colon; HOP-62 NSCLC; HOP-92 NSCLC; IGROV1 ovarian; K-562 leukemia; OVCAR-8 ovarian; SK-MEL-2 melanoma; SNB-75 CNS; SR leukemia; U251 CNS; UO-31 renal; CAKI-1 renal; SK-MEL-5 melanoma; SK-OV-3 ovarian; UACC-62 melanoma.
Common to all, as to test: growth of human tumour cells (NCI), 48 h

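A five-concentration, 48-hour dose response in 96-well plates underlies each endpoint, interpolated linearly between surrounding concentrations. TGI is the concentration that stops growth completely.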

In the case of `O=c1c2cc(Br)ccc2n(C2OC(CO)C(O)C(O)C2O)c(=S)n1-c1ccccc1` (configuration not stated), the TGI with HCT-15 colon, with HOP-62 NSCLC, in the test on HOP-92 NSCLC, in the test on IGROV1 ovarian, in the test on K-562 leukemia and with OVCAR-8 ovarian was over 100 µM throughout. Also, the TGI in the test with SK-MEL-2 melanoma, in the test with SNB-75 CNS, in the test on SR leukemia, in the test on U251 CNS and with UO-31 renal was over 100 µM each time.

With `CC1=C(c2ccccc2)CON(c2ccccc2)C1`, the TGI in the test on CAKI-1 renal, in the test on HCT-15 colon, in the test with HOP-62 NSCLC, in the test on IGROV1 ovarian, in the test on K-562 leukemia and in the test on OVCAR-8 ovarian was over 100 µM throughout. Besides, the TGI in the test with SK-MEL-2 melanoma is over 100 µM; in the test with SK-MEL-5 melanoma, 47.5 µM; with SK-OV-3 ovarian it was over 100 µM; in the test on SR leukemia, over 100 µM; in the test on U251 CNS it was 69 µM; in the test on UACC-62 melanoma it was over 100 µM. The molecule also had a TGI in the test with UO-31 renal of 97.5 µM.

Turning to `O[C@]12c3ccccc3C1CCCC2N1CCOCC1` (some centres not stated), the TGI in the test on HCT-15 colon, in the test with HOP-62 NSCLC, in the test with K-562 leukemia, with OVCAR-8 ovarian, in the test on SK-MEL-2 melanoma and with SK-MEL-5 melanoma was over 100 µM each time. Moreover, the TGI with SK-OV-3 ovarian, in the test on SNB-75 CNS, in the test on U251 CNS, with UACC-62 melanoma and in the test with UO-31 renal was over 100 µM throughout.

As for `COc1ccc(/C=N/NC(=O)CSc2nc(-c3ccccc3)c(-c3ccccc3)[nH]2)cc1OC`, the TGI came out at 72.9 µM in the test on CAKI-1 renal; 83.9 µM in the test on HCT-15 colon; 72.5 µM in the test with HOP-62 NSCLC; 84.6 µM with HOP-92 NSCLC; 55.5 µM in the test with IGROV1 ovarian; 36.3 µM with OVCAR-8 ovarian. The TGI was 39.1 µM in the test with SK-MEL-2 melanoma; 31.3 µM in the test with SK-MEL-5 melanoma; 63.3 µM in the test with SK-OV-3 ovarian; 77 µM in the test on SNB-75 CNS; 57.8 µM in the test on U251 CNS; 40.5 µM in the test on UACC-62 melanoma. This molecule also yielded a TGI in the test on UO-31 renal of 69.7 µM.

As to `COc1cc2c(cc1OC)C(Cc1cc(Br)c(OC)c(OC)c1)=[N+](C)CC2`, the TGI in the test on CAKI-1 renal, with HCT-15 colon, in the test with HOP-62 NSCLC, in the test on HOP-92 NSCLC, in the test on IGROV1 ovarian and in the test on K-562 leukemia was over 100 µM in each case. The TGI in the test on OVCAR-8 ovarian, in the test with SK-MEL-2 melanoma, in the test with SK-MEL-5 melanoma, with SK-OV-3 ovarian, with SNB-75 CNS and in the test with U251 CNS was over 100 µM each time. In addition, the TGI in the test on UACC-62 melanoma and in the test with UO-31 renal was over 100 µM each time.

As to `FC(F)(F)c1nc2c(ccc3[nH]c4c(-c5ccccc5)nccc4c32)[nH]1`, the TGI with CAKI-1 renal, in the test on HCT-15 colon, in the test on HOP-62 NSCLC, with HOP-92 NSCLC, in the test on IGROV1 ovarian and in the test with K-562 leukemia was over 100 µM in each case. Besides, the TGI with OVCAR-8 ovarian is over 100 µM; in the test with SK-MEL-2 melanoma, over 100 µM; in the test on SK-MEL-5 melanoma it was over 100 µM; in the test with SK-OV-3 ovarian, over 100 µM; with SNB-75 CNS, over 100 µM; in the test with SR leukemia it was 40.7 µM. For the same molecule, the TGI in the test with U251 CNS, with UACC-62 melanoma and in the test on UO-31 renal was over 100 µM throughout.

On to `CC(C(=O)c1ccc(O)cc1)C1(O)C(=O)Nc2c(Cl)cc(Cl)cc21` (configuration not stated), for which the TGI is over 100 µM in the test on CAKI-1 renal; over 100 µM in the test with HCT-15 colon; over 100 µM with HOP-62 NSCLC; over 100 µM in the test with HOP-92 NSCLC; over 100 µM in the test on IGROV1 ovarian; 32.6 µM with K-562 leukemia. In addition, the TGI in the test with OVCAR-8 ovarian was over 100 µM; in the test on SK-MEL-2 melanoma it was over 100 µM; in the test with SK-MEL-5 melanoma, 31.4 µM; in the test with SK-OV-3 ovarian it was over 100 µM; in the test with SNB-75 CNS, over 100 µM; with U251 CNS it was over 100 µM. Also, the TGI with UACC-62 melanoma is 21.7 µM; with UO-31 renal, over 100 µM.

Take `O=C(c1nc2ccc(Cl)cc2[nH]c1=O)C(O)c1ccco1` (configuration not stated): the TGI in the test on CAKI-1 renal is over 100 µM; in the test on HCT-15 colon, 37.1 µM; in the test with HOP-92 NSCLC it was over 100 µM; in the test on IGROV1 ovarian, over 100 µM; with K-562 leukemia it was over 100 µM; in the test with SK-MEL-2 melanoma it was over 100 µM. Also, the TGI with SK-MEL-5 melanoma, in the test with SK-OV-3 ovarian, in the test with SNB-75 CNS, in the test with UACC-62 melanoma and in the test on UO-31 renal was over 100 µM in each case.

For the molecule `CCOC(=O)/C(=C/c1ccccc1)N(CC)CC`, the TGI in the test on CAKI-1 renal, in the test on HCT-15 colon, with HOP-62 NSCLC, in the test with HOP-92 NSCLC, in the test with IGROV1 ovarian and in the test with K-562 leukemia was over 100 µM throughout. Besides, the TGI with OVCAR-8 ovarian, with SK-MEL-2 melanoma, in the test with SK-MEL-5 melanoma, in the test with SK-OV-3 ovarian, with SR leukemia and in the test on U251 CNS was over 100 µM throughout. Further, the TGI in the test on UACC-62 melanoma and in the test on UO-31 renal was over 100 µM throughout.

In the case of `[N-]=[N+]=Nc1nnc(CCCCc2nnc(N=[N+]=[N-])o2)o1`, the TGI with HCT-15 colon, with HOP-62 NSCLC, in the test with HOP-92 NSCLC, in the test with K-562 leukemia, in the test on OVCAR-8 ovarian and in the test with SK-MEL-2 melanoma was over 100 µM in each case. The TGI in the test on SK-MEL-5 melanoma, in the test with SK-OV-3 ovarian, in the test on SNB-75 CNS, with U251 CNS, in the test on UACC-62 melanoma and with UO-31 renal was over 100 µM in each case.

For `CC(=O)NC(CCCCN(Cc1ccccc1)C(=O)N(C)N=O)C(=O)NCc1ccccc1` (configuration not stated), the TGI in the test on CAKI-1 renal, with HCT-15 colon, in the test on HOP-62 NSCLC, in the test on HOP-92 NSCLC, with IGROV1 ovarian and in the test on K-562 leukemia was over 100 µM each time. Further, the TGI was over 100 µM with OVCAR-8 ovarian; over 100 µM with SK-MEL-2 melanoma; over 100 µM in the test on SK-MEL-5 melanoma; over 100 µM in the test on SK-OV-3 ovarian; 86.9 µM in the test with SNB-75 CNS; over 100 µM with U251 CNS. Moreover, the TGI in the test on UACC-62 melanoma and with UO-31 renal was over 100 µM each time.

As to `N#CC(C(=S)Nc1ccccc1)=C1Nc2ccccc2N1`, the TGI in the test with CAKI-1 renal, in the test on HCT-15 colon, in the test on HOP-62 NSCLC, in the test on HOP-92 NSCLC, with K-562 leukemia and in the test on OVCAR-8 ovarian was over 10 µM in each case. The TGI in the test on SK-MEL-2 melanoma, with SK-MEL-5 melanoma, with SK-OV-3 ovarian, in the test on SNB-75 CNS, with SR leukemia and with U251 CNS was over 10 µM throughout. For the same molecule, the TGI in the test on UACC-62 melanoma and in the test with UO-31 renal was over 10 µM throughout.

In the case of `COc1ccc([C@H]2[C@@H]3CCc4ccccc4C3=NN2C(N)=S)cc1OC`, the TGI was over 100 µM in the test with HCT-15 colon; over 100 µM in the test with HOP-62 NSCLC; over 100 µM in the test with HOP-92 NSCLC; over 100 µM in the test with IGROV1 ovarian; 66.9 µM in the test on K-562 leukemia; over 100 µM in the test with OVCAR-8 ovarian. For the same molecule, the TGI with SK-MEL-2 melanoma was over 100 µM; with SK-OV-3 ovarian it was over 100 µM; with SR leukemia it was 72.4 µM; in the test with U251 CNS, over 100 µM; in the test on UACC-62 melanoma it was over 100 µM; with UO-31 renal, over 100 µM.

For `COc1cc(CO)cc2c1[nH]c1ccccc12`, the TGI in the test with HCT-15 colon, with HOP-62 NSCLC, in the test on HOP-92 NSCLC, in the test with IGROV1 ovarian, in the test with K-562 leukemia and in the test on OVCAR-8 ovarian was over 25 µM in each case. For the same molecule, the TGI in the test on SK-MEL-2 melanoma, in the test on SK-MEL-5 melanoma, in the test with SK-OV-3 ovarian, in the test on SR leukemia, in the test on U251 CNS and in the test with UACC-62 melanoma was over 25 µM in each case. The molecule further had a TGI with UO-31 renal of over 25 µM.

`NC(CCSCCF)C(=O)O` (configuration not stated): the TGI in the test with CAKI-1 renal, in the test on HCT-15 colon, in the test on HOP-62 NSCLC, in the test with HOP-92 NSCLC, in the test on IGROV1 ovarian and in the test on K-562 leukemia was over 100 µM throughout. Moreover, the TGI with SK-MEL-2 melanoma, in the test with SK-OV-3 ovarian, in the test with SR leukemia, in the test with U251 CNS, in the test with UACC-62 melanoma and in the test with UO-31 renal was over 100 µM each time.

Consider `CC(C)C1COC(C(C)(C)C2=N[C@@H](C(C)C)CO2)=N1` (some centres not stated), for which the TGI in the test with HCT-15 colon, with HOP-62 NSCLC, in the test with HOP-92 NSCLC, in the test with IGROV1 ovarian, in the test with K-562 leukemia and in the test with OVCAR-8 ovarian was over 100 µM throughout. Moreover, the TGI in the test on SK-MEL-2 melanoma, in the test on SK-MEL-5 melanoma, in the test with SK-OV-3 ovarian, in the test with SNB-75 CNS, with SR leukemia and in the test with U251 CNS was over 100 µM each time. For the same molecule, the TGI with UACC-62 melanoma and in the test with UO-31 renal was over 100 µM in each case.

(Values after PubChem BioAssay (NCI).)
